This passage reports IC50 results from patent publication EP4806891A1 (Kangbaida (Sichuan) Biotechnology Co., Ltd., priority 2023, dated 2025).

The target of this experiment is T1, HEK-Blue-hTLR7 cells (Homo sapiens, UniProt Q9NYK1).
T1 construct: expressed in transfected cells; host or cells: HEK-Blue-hTLR7 cells (HEK293-derived reporter line)
T1 sequence (Q9NYK1 27-1049): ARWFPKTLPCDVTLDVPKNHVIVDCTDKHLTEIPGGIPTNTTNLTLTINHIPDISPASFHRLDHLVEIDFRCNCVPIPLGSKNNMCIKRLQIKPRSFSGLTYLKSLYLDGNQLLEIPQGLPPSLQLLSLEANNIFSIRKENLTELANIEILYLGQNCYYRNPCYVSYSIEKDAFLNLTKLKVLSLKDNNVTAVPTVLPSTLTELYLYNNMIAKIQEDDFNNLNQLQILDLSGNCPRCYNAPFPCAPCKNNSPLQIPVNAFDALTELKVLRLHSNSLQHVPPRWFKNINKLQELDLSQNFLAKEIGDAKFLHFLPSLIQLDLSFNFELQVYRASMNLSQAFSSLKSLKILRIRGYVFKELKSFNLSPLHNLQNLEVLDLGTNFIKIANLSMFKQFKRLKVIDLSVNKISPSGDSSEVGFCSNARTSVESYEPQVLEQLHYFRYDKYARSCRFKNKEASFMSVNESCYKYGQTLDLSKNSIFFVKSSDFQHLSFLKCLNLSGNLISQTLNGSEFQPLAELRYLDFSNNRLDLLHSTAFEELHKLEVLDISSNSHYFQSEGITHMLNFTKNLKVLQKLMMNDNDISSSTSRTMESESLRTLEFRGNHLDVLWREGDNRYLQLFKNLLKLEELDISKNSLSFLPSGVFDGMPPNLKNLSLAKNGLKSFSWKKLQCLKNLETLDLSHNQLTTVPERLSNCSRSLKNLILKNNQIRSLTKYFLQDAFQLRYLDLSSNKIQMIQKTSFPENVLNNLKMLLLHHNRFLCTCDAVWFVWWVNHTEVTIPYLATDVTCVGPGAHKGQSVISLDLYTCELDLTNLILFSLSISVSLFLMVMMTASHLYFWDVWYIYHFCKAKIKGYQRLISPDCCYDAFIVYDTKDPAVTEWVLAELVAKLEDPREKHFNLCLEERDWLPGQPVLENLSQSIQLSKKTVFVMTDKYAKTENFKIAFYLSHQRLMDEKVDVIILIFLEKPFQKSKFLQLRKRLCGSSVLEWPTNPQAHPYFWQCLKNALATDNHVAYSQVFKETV
The experiment can be described thus: HEK-Blue-hTLR7 cell inhibition assay. Type of experiment: cell-based. The following applies: R848 0.8 µM, 16 h, OD 620 nm, read-out: TLR7 IC50. The method, boiled down: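 Cells were pre-incubated 4 h, then co-treated 16 h at 37 °C with compound (10 doses, 0.5–10000 nM final) plus R848 (0.8 µM for TLR7, 3 µM for TLR8) or ODN2006 (1 µM, TLR9). Reporter OD620 gave inhibition relative to DMSO blank and agonist-only controls; IC50 came from curve fitting.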

For the molecule `CN(C)[C@H]1CC[C@H](c2nnc([C@]34CN(c5ccc(C#N)c6ncccc56)C[C@@]3(C(F)(F)F)C4)o2)CC1` [Compound 21, 5-((1S,5R)-1-(5-((1R,4S)-4-(dimethylamino)cyclohexyl)-1,3,4-oxadiazol-2-yl)-5-(trifluoromethyl)-3-azabicyclo[3.1.0]hexan-3-yl)quinoline-8-carbonitrile], the IC50 (commonly the concentration needed to halve the response being measured) was under 100 nM. As for `N#Cc1ccc(N2C[C@]3(c4nnc(C5=CCNC5)o4)C[C@]3(C(F)(F)F)C2)c2cccnc12` [Compound 22, 5-((1S,5R)-1-(5-(2,5-dihydro-1H-pyrrol-3-yl)-1,3,4-oxadiazol-2-yl)-5-(trifluoromethyl)-3-azabicyclo[3.1.0]hexan-3-yl)quinoline-8-carbonitrile], the figure is under 100 nM; as for `CN1CCC(n2cnc([C@]34CN(c5ccc(C#N)c6ncccc56)C[C@@]3(C(F)(F)F)C4)n2)CC1` [Compound 23, 5-((1S,5R)-1-(1-(1-methylpiperidin-4-yl)-1H-1,2,4-triazol-3-yl)-5-(trifluoromethyl)-3-azabicyclo[3.1.0]hexan-3-yl)quinoline-8-carbonitrile], under 100 nM; as for `N#Cc1ccc(N2C[C@]3(c4nnc(C#CCN5CCOCC5)o4)C[C@]3(C(F)(F)F)C2)c2cccnc12` [Compound 24, 5-((1S,5R)-1-(5-(3-morpholinoprop-1-yn-1-yl)-1,3,4-oxadiazol-2-yl)-5-(trifluoromethyl)-3-azabicyclo[3.1.0]hexan-3-yl)quinoline-8-carbonitrile], under 1000 nM. As for `CN(C)CC#Cc1nnc([C@]23CN(c4ccc(C#N)c5ncccc45)C[C@@]2(C(F)(F)F)C3)o1` [Compound 25, 5-((1S,5R)-1-(5-(3-(dimethylamino)prop-1-yn-1-yl)-1,3,4-oxadiazol-2-yl)-5-(trifluoromethyl)-3-azabicyclo[3.1.0]hexan-3-yl)quinoline-8-carbonitrile], the figure is under 100 nM; as for `CC1(C)CC(Cc2nnc([C@]34CN(c5ccc(C#N)c6ncccc56)C[C@@]3(C(F)(F)F)C4)o2)CC(C)(C)N1` [Compound 26, 5-((1S,5R)-1-(5-((2,2,6,6-tetramethylpiperidin-4-yl)methyl)-1,3,4-oxadiazol-2-yl)-5-(trifluoromethyl)-3-azabicyclo[3.1.0]hexan-3-yl)quinoline-8-carbonitrile], under 100 nM. As for `N#Cc1ccc(N2C[C@]3(c4nnc(N5CCOCC5)o4)C[C@]3(C(F)(F)F)C2)c2cccnc12` [Compound 27, 5-((1S,5R)-1-(5-morpholino-1,3,4-oxadiazol-2-yl)-5-(trifluoromethyl)-3-azabicyclo[3.1.0]hexan-3-yl)quinoline-8-carbonitrile], the figure is under 100 nM. Consider `CN1CC(Cc2nnc([C@]34CN(c5ccc(C#N)n6ncc(F)c56)C[C@@]3(C(F)(F)F)C4)o2)C1` [Compound 30, 3-fluoro-4-((1S,5R)-1-(5-((1-methylazetidin-3-yl)methyl)-1,3,4-oxadiazol-2-yl)-5-(trifluoromethyl)-3-azabicyclo[3.1.0]hexan-3-yl)pyrazolo[1,5-a]pyridine-7-carbonitrile], for which the IC50 was under 100 nM. The figure for `CN1CCC(Oc2nnc([C@]34CN(c5ccc(C#N)n6ncc(F)c56)C[C@@]3(C(F)(F)F)C4)o2)CC1` [Compound 31, 3-fluoro-4-((1S,5R)-1-(5-((1-methylpiperidin-4-yl)oxy)-1,3,4-oxadiazol-2-yl)-5-(trifluoromethyl)-3-azabicyclo[3.1.0]hexan-3-yl)pyrazolo[1,5-a]pyridine-7-carbonitrile] is under 100 nM; for `N#Cc1ccc(N2C[C@]3(c4nnc(C5(F)CNC5)o4)C[C@]3(C(F)(F)F)C2)c2cccnc12` [Compound 32, 5-((1S,5R)-1-(5-(3-Fluoroazetidin-3-yl)-1,3,4-oxadiazol-2-yl)-5-(trifluoromethyl)-3-azabicyclo[3.1.0]hexan-3-yl)quinoline-8-carbonitrile] it is under 100 nM; for `N#Cc1ccc(N2C[C@]3(c4nnc(C5CCNCC5F)o4)C[C@]3(C(F)(F)F)C2)c2cccnc12` (some centres unmarked) [Compound 33] it is under 100 nM. As for `CN1CCC(c2nnc([C@]34CN(c5ccc(C#N)c6ncccc56)C[C@@]3(C(F)(F)F)C4)o2)CC1=O` (some centres unmarked) [Compound 34], the figure is under 100 nM; as for `N#Cc1ccc(N2C[C@]3(c4nnc(CC5CNC5)o4)C[C@]3(C(F)(F)F)C2)c2cccnc12` [Compound 35, 5-((1S,5R)-1-(5-(azetidin-3-ylmethyl)-1,3,4-oxadiazol-2-yl)-5-(trifluoromethyl)-3-azabicyclo[3.1.0]hexan-3-yl)quinoline-8-carbonitrile], under 1000 nM; as for `CN1CC(Cc2nnc([C@]34CN(c5ccc(C#N)c6ncccc56)C[C@@]3(C(F)(F)F)C4)o2)C1` [Compound 36, 5-((1S,5R)-1-(5-((1-methylazetidin-3-yl)methyl)-1,3,4-oxadiazol-2-yl)-5-(trifluoromethyl)-3-azabicyclo[3.1.0]hexan-3-yl)quinoline-8-carbonitrile], under 100 nM. The figure for `CN1CCC(Cc2nnc([C@]34CN(c5ccc(C#N)c6ncccc56)C[C@@]3(C(F)(F)F)C4)o2)CC1` [Compound 37, 5-((1S,5R)-1-(5-((1-methylpiperidin-4-yl)methyl)-1,3,4-oxadiazol-2-yl)-5-(trifluoromethyl)-3-azabicyclo[3.1.0]hexan-3-yl)quinoline-8-carbonitrile] is under 100 nM; for `CN1CCC(Cc2nnc([C@]34CN(c5ccc(C#N)c6ncccc56)C[C@@]3(C(F)(F)F)C4)n2C)CC1` [Compound 38, 5-((1S,5R)-1-(4-methyl-5-((1-methylpiperidin-4-yl)methyl)-4H-1,2,4-triazol-3-yl)-5-(trifluoromethyl)-3-azabicyclo[3.1.0]hexan-3-yl)quinoline-8-carbonitrile] it is under 1000 nM; for `CN1CC(c2nnc([C@]34CN(c5ccc(C#N)c6ncccc56)C[C@@]3(C(F)(F)F)C4)o2)C1` [Compound 39, 5-((1S,5R)-1-(5-(1-methylazetidin-3-yl)-1,3,4-oxadiazol-2-yl)-5-(trifluoromethyl)-3-azabicyclo[3.1.0]hexan-3-yl)quinoline-8-carbonitrile] it is under 100 nM. As to `N#Cc1ccc(N2C[C@]3(c4nnc(CN5CCOCC5)o4)C[C@]3(C(F)(F)F)C2)c2cccnc12` [Compound 40, 5-((1S,5R)-1-(5-(morpholinomethyl)-1,3,4-oxadiazol-2-yl)-5-(trifluoromethyl)-3-azabicyclo[3.1.0]hexan-3-yl)quinoline-8-carbonitrile], the IC50 was under 1000 nM.

With `N#Cc1ccc(N2C[C@]3(c4nnc(CN5CCCC5)o4)C[C@]3(C(F)(F)F)C2)c2cccnc12` [Compound 41, 5-((1S,5R)-1-(5-(Pyrrolidin-1-ylmethyl)-1,3,4-oxadiazol-2-yl)-5-(trifluoromethyl)-3-azabicyclo[3.1.0]hexan-3-yl)quinoline-8-carbonitrile], the IC50 was under 100 nM. As for `CN(C)Cc1nnc([C@]23CN(c4ccc(C#N)c5ncccc45)C[C@@]2(C(F)(F)F)C3)o1` [Compound 42, 5-((1S,5R)-1-(5-((dimethylamino)methyl)-1,3,4-oxadiazol-2-yl)-5-(trifluoromethyl)-3-azabicyclo[3.1.0]hexan-3-yl)quinoline-8-carbonitrile], the figure is under 100 nM.
